Measured values taken from patent publication US20110098296A1, “Thiazole And Oxazole Kinase Inhibitors” (priority 2007, published 2011).
Values belong to the compound of their own block, whether it stands above or below them.

What was measured:
Assay type in all cases: cell-based
Colo205 tumor cells = experiment: Method A: Methylene Blue Growth Inhibition Assay, Colo205; details: Homo sapiens, COLO 205, 72 h, 3 days
Experimental: (§1) Human breast (BT474) and head and neck (HN5) tumor cells were cultured in low glucose DMEM (Life Technologies 12320-032) containing 10% fetal bovine serum (FBS). Human colon tumor cells (Colo205) were cultured in DMEM (Invitrogen, 10564) containing 10% FBS. The SV40 transformed human mammary epithelial cell line HB4a was transfected with either human H-ras cDNA (HB4a r4.2) or the human c-ErbB2 cDNA (HB4a c5.2). The HB4a clones were cultured in RPMI containing 10% FBS, insulin (5 g/mL), hydrocortisone (5 g/mL), supplemented with the selection agent hygromycin B (50 g/mL). All lines were grown in a humidified incubator at 37° C. in 95% air, 5% CO2. Cells were harvested using trypsin/EDTA, counted using a haemocytometer, and plated in 100 μL of the appropriate media, at the following densities, in a 96-well tissue culture plate (Falcon 3075): BT474 10,000 cells/well, HN5 3,000 cells/well. The next day, compounds were diluted in DMEM containing […] gentamicin, at twice the final required concentration, from 10 mM stock solutions in DMSO. 100 μl/well of these dilutions were added to the 100 μL of media currently on the cell plates. Medium containing 0.6% DMSO was added to control wells. Compounds diluted in DMEM were added to all cell lines. The final concentration of DMSO in all wells was 0.3%. Cells were returned to the incubator (37° C., […]) for 3 days. Medium was then removed by aspiration. Cell biomass was estimated by staining cells with 90 μL/well methylene blue (Sigma M9140, 0.5% in 1:1 EtOH:H2O), and incubation at room temperature for at least 30 minutes. Stain was removed, and the plates rinsed by immersion in deionized H2O and air-dried. To release stain from the cells 100 μL of solubilization solution were added (1% N-lauroyl sarcosine, sodium salt, Sigma L5125, in PBS), and plates were shaken gently for about 30 minutes. Optical density at 620 nm was measured on a microplate reader. Percent inhibition of cell growth was calculated relative to vehicle-treated control wells. Concentration of compound that inhibits 50% of control cell growth (IC50) was interpolated using nonlinear regression (Levenberg-Marquardt) and the equation,
(§2) y=Vmax*(1−(x/(K+x)))+Y2, where “K” was equal to the IC50.

BT474 tumor cells = experiment: Method B: CellTiter-Glo Growth Inhibition Assay, BT474; details: Homo sapiens, BT-474, 72 h, 3 days
Procedure, shortened: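 Cells plated (BT474 3,000, HN5 500, Colo205 3,000 per well) in RPMI or DMEM with 10% FBS; compounds added next day, final DMSO 0.3%, then 3 days at 37° C, 5% CO2. Viability by CellTiter-Glo luminescence; percent inhibition versus vehicle, IC50 interpolated by nonlinear regression.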

HN5 tumor cells = experiment: Method A: Methylene Blue Growth Inhibition Assay, HN5; details: Homo sapiens, 72 h, 3 days
Experimental: as §1, §2

IC50 (Colo205 tumor cells): < 100 nM
Structure (SMILES): COc1cc(Nc2nccc(-c3sc(N)nc3-c3cccc(NC(=O)c4c(F)cccc4F)c3)n2)cc(OC)c1OC [Example 16, N-[3-(2-Amino-5-{2-[(3,4,5-trimethoxyphenyl)amino]pyrimidiN-4-yl}-1,3-thiazol-4-yl)phenyl]-2,6-difluorobenzamide]

IC50 (BT474 tumor cells): > 1000 nM
Structure (SMILES): Cc1nc(-c2cccc(NC(=O)c3cc(F)ccc3F)c2)c(-c2ccnc(Nc3ccc(OCCN(C)C)c(Cl)c3)n2)o1 [Example 142]

IC50 (HN5 tumor cells): < 100 nM
Structure (SMILES): COc1ccc(Nc2nccc(-c3sc(N)nc3-c3cccc(NC(=O)c4c(F)cccc4F)c3)n2)cc1N1CCNCC1 [Example 18, N-[3-(2-Amino-5-{2-[(4-methoxy-3-piperaziN-1-ylphenyl)amino]pyrimidiN-4-yl}-1,3-thiazol-4-yl)phenyl]-2,6-difluorobenzamide]
